Values joined by “and” are separate entries in the source; they are usually repeats but may differ in a detail not shown here. Equal entries are not always repeated. Where two headings read alike, the source gives them in different places.
Experiments:
[1] = cited from earlier work
[2] = system: metastatic cancer of the colon or rectum; details: 350 mg/m^2 30-minute iv infusion once every 3 weeks; 132 previously treated patients; cited from earlier work
[3] = system: human HT29 colorectal adenocarcinoma; parameters: species or system mouse; details: in vivo
[4] = system: human K562 myelogenous leukemia cells; assay: in vivo
Description: (§1) In one example, female nude mice (n=10) were inoculated subcutaneously with 15×10^6 human K562 myelogenous leukemia cells in a 1:1 ratio with matrigel on the right flank. Tumor volumes were monitored and calculated using the formula: Tumor volume=(a^2×b/2) where ‘a’ is the smallest diameter and ‘b’ is the largest diameter. Once the established tumors reached approximately 75-150 mm^3 (individual tumor volumes may range from […]) the mice were assigned to the various vehicle control and treatment groups such that the mean tumor volumes in the treated groups were within 10% of the mean tumor weight in the vehicle control group. On the same day (day 1) and days 4, 7, 10, and 13, vinca-alkaloid N-oxide analogs (VCR-NO, VBL-NO) were administered intravenously according to a q3d×5 schedule. Mice were also treated with vehicle (negative control) and the standard agents, vinblastine and vincristine (positive controls). Tumor volumes were recorded three times a week starting when tumors were palpable and including the day of study termination. Animals were monitored for signs of toxicity and body weights were recorded twice a week starting on the first day of treatment and including the day of study termination. […] The mean day of sacrifice were calculated to determine the tumor growth delay and tumor growth inhibition effects of each test article as compared to vehicle control. […] Statistical significance between the treated vs. control groups was evaluated by logrank analysis.

[5] = mouse, in vivo
Description: Body weights were monitored twice weekly and up to 2 weeks following treatment. Mice were also injected ip with 4 or 6 mg/kg vinblastine using the same q3d×5 schedule as a positive control.

[6] = system: Human H460 lung adenocarcinoma tumor cells
Description: Cells were exposed with gentle rocking to a constant level of low oxygen (0.2% O2-5% CO2-balance N2) in a hypoxia apparatus (INVIVO2400 Hypoxia Workstation, Ruskin Technology) for 12 hr at 37° C. Identically treated cells were incubated under normoxia (air-5% CO2) at 37° C. Cells were harvested and lysed in DNA lysis buffer (20 mM Tris-HCL, pH 8.0, 1 mM EDTA, 0.1% Triton X-100) and stored at −80° C. for analysis of DNA content and LC/MS/MS analysis. […] Lysates were mixed with 150 ml of methanol containing 0.1% acetic acid and vinca alkaloid internal standard, and vortexed for 10 min, and centrifuged for 5 min at 18000 g. Clarified supernatants were transferred to HPLC vials fitted with glass inserts and analyzed by LC-MS/MS. Chromatography was performed on an Acquity HPLC system fitted with an Acquity BEH C18 column, and used 0.1% (v:v) formic acid in water for mobile phase A, and 0.1% (v:v) formic acid in acetonitrile for mobile phase B. Mass spectral analysis was performed using a Micromass Quattro Micro triple quadupole mass spectrometer.
The amounts of each compound were calculated from standard curves.

[7] = system: human HL60 promyelocytic leukemia cells; details: in vivo
[8] = system: human H460 lung adenocarcinoma cells
Description: Human H460 lung adenocarcinoma tumor cells were cultured in DMEM-10% FBS under standard conditions. One-hundred mm plastic culture dishes were seeded with 1×10^6 tumor cells/dish and treated with vinca alkaloids or N-oxide analogs at a 0.01-100 nM dose range. Cells were exposed with gentle rocking to a constant level of low oxygen (0.2, 1% or 5% O2-5% CO2-balance N2) in a hypoxia apparatus (INVIVO2400 Hypoxia Workstation, Ruskin Technology) for 14 hr at 37° C. Identically treated cells were incubated under normoxia (air-5% CO2) at 37° C. Cells were harvested and replated in fresh medium at a density of 1×10^3 cells/well in 48-well plastic culture plates to assess viability 24-72 hr later. Briefly, Alamar Blue was added to replicate wells on Day 0 and Day 3, and cells were incubated for a further 3-6 hr at 37° C. before fluorescence readings using a plate reader (530-560 nm excitation, 590 emission). The percent inhibition of proliferation was calculated and plotted against control-treated cells at each drug concentration. […] The Hypoxia Cytotoxicity Ratio (HCR) was defined as ((IC50 in Hypoxia)/(IC50 in Normoxia)).

[9] = system: multiple human solid tumor cell lines; assay: Hypoxia-induced cytotoxicity across cell lines (HCR range); assay type: cell-based
Description: (§4) Tumor cell line were cultured in DMEM-10% FBS under standard conditions. One-hundred mm plastic culture dishes were seeded with 1×10^6 tumor cells and treated with vinca alkaloids or N-oxide analogs at a dose range of 0.01-100 nM. Cells were exposed with gentle rocking to a constant level of low oxygen (0.2% O2-5% CO2-balance N2) in a hypoxia apparatus (INVIVO2400 Hypoxia Workstation, Ruskin Technology) for 14 hr at 37° C. Identically treated cells were incubated under normoxia (air-5% CO2) at 37° C. Cells were harvested and replated in fresh medium at a density of 1×10^3 cells/well in 48-well plastic culture plates to assess viability 24-72 hr later. Briefly, Alamar Blue was added to replicate wells on Day 0 and Day 3, and cells were incubated for a further 3-6 hr at 37° C. before fluorescence readings using a plate reader (530-560 nm excitation, 590 emission). The percent inhibition of proliferation was calculated and plotted against control-treated cells at each drug concentration. […] The Hypoxia Cytotoxicity Ratio (HCR) was determined as the ratio of the IC50 of the compound under normoxic conditions vs. hypoxic conditions.

[10] = system: FaDU head and neck tumor cell lines
Description: as §4

[11] = system: H460 lung carcinoma tumor cells; assay type: cell-based, human
[12] = system: A549 non-small cell lung carcinoma
Description: as §4

[13] = system: murine P388 leukemic tumor cells; assay: in vivo
Description: (§2) For example, B6D2F1 mice (n=8/group) were inoculated subcutaneously (sc) in the right flank with 1×10^6 murine L1210 leukemic tumor cells. […] Test agents were administered on multiple treatment regimen (q3d×5) to yield optimal dose schedule benefit. Vehicle control treated mice served as the negative control group; mice treated with the bioreduced parent compounds, vincristine and vinblastine, dosed at their […] (MTDs), served as the positive control groups. Tumors were measured with calipers twice weekly and tumor volume calculated using the formula: Tumor Volume (mm^3)=((width)^2×length)/2. Animals were monitored for signs of toxicity and weighed daily for the first 5 days of the study and then twice-weekly until the study end. As pre-defined in the protocol, each animal was actively euthanized when its tumor reached the pre-determined endpoint size of 2000 mm^3 or at the conclusion of the study (day 37) whichever came first. The time to endpoint (TTE) was calculated for each mouse as TTE (days)=(log10(endpoint volume mm^3)−b)/m where b is the intercept and m is the slope of the line obtained by linear regression of a log-transformed tumor growth data set. Treatment outcome was determined from tumor growth delay (TGD) which is defined as the increase in median TTE in a treatment (T) group as compared to the control (C) group (TGD=T−C) expressed in days or as a percentage of the median TTE of the control group % TGD=((T−C)/C)×100. […] Statistical significance between the treated vs. control groups was evaluated by logrank analysis.
(§3) This model was developed by subcutaneously inoculating B6D2F1 mice (n=8/group) with 1×10^6 murine P388 leukemic tumor cells using similar methodology to that described above for L1210. […] Agents were administered on multiple treatment regimen (q3d×5) to yield optimal dose schedule benefit. Efficacy of treatment with the N-oxide analogs was determined by Tumor Growth Delay (TGD) and Kaplan-Meier survival analysis as described for L1210, the exception being that the conclusion of the study was day 45 or the predefined endpoint size of 2000 mm^3 whichever came first. Vehicle control treated mice served as the negative control group; mice treated with the standard agents, vincristine and vinblastine, dosed at their MTDs, served as the positive control groups.

in vivo [14] = details: female, nude, mouse, iv
Description: as §1

in vivo [15] = details: B6D2F1, mouse, in vivo, iv
Description: as §2, §3

in vivo [16] = details: B6D2F1, mouse, in vivo, iv; remark: listed apart in the source
Description: as §2

[17] = system: murine L1210 leukemic tumor cells; assay: in vivo; details: L1210; 1 mg/kg i.v. q3d×5
Description: as §2

in vivo [18] = details: female, nude, mouse, iv; remark: listed apart in the source
[19] = system: human H460 lung adenocarcinoma
Description: as §4

[20] = system: human H460 lung adenocarcinoma; assay: cells; details: NCI-H460, 14 h
Description: as §4

[21] = Grade III-IV, Naïve pts (n = 48)
[22] = Grade III-IV, Pre-treated patients (n = 165)

Description for SiHa: as §4

Compound: CCc1c2c(nc3ccc(OC(=O)N4CCC(N5CCCCC5)CC4)cc13)-c1cc3c(c(=O)n1C2)COC(=O)[C@]3(O)CC [CPT-11, 7-ethyl-10[4-(1-piperidino)-1-piperidino]carbonyloxycamptothecin, reference compound]
- Alopecia [1, 21]: Alopecia 54%
- Delayed Diarrhea [1, 21]: Delayed Diarrhea 35%
- Nausea/Vomiting [1, 21]: Nausea/Vomiting 13%
- Thrombocytopenia [1, 21]: Thrombocytopenia 2%
- Leukopenia/Neutropenia Toxicity ([1]; Grade III-IV, Naïve pts): 48%
- Alopecia [1, 22]: Alopecia 53%
- Delayed Diarrhea [1, 22]: Delayed Diarrhea 39%
- Nausea/Vomiting [1, 22]: Nausea/Vomiting 22%
- Thrombocytopenia [1, 22]: Thrombocytopenia 3%
- Leukopenia/Neutropenia Toxicity ([1]; Grade III-IV, Pretreated pts): 47%
- Documented Infection ([1]; Grade III-IV): 5%
- Neutropenic Fever ([1]; Grade III-IV): Neutropenic Fever 14%
- Anemia Grade III-IV ([1]; Naïve pts (n = 48)): 8%
- Anemia Grade III-IV ([1]; Pre-treated patients (n = 165)): 10%
- intent-to-treat response rate [2]: 12.1%
- Tumor Growth Delay ([3]; ip, 100 mg/kg): 60%

Compound: CC[C@]1(O)C[C@H]2C[C@](C(=O)OC)(c3cc4c(cc3OC)N(C)[C@H]3[C@@](O)(C(=O)OC)[C@H](OC(C)=O)[C@]5(CC)C=CCN6CC[C@]43[C@@H]65)c3[nH]c4ccccc4c3CC[N@+]([O-])(C2)C1 [Vinblastine N-oxide, Vinblastine N′b-Oxide]
- Tumor Growth Inhibition [4]: 77% and 89%
- Hypoxia Cytotoxicity Ratio (HCR) (SiHa): 4.3
- body weight loss / gross symptoms of toxicity [5]: no evidence of significant body weight loss or gross symptoms of toxicity
- bioreduction to parent compound [6]: bioreduced to vinblastine under hypoxia exposure
- Tumor Growth Inhibition [7]: 91% and 94%
- cytotoxicity vs oxygen concentration [8]: Increased cytotoxicity
- HCR values [9]: 3-21
- Hypoxia Cytotoxicity Ratio (HCR) [10]: 7.5
- Hypoxia Cytotoxicity Ratio [11]: ~20
- IC50 inhibitory activity after activation under hypoxia [11]: low nanomolar

Compound: CC[C@]1(O)C[C@@H]2C[C@](C(=O)OC)(c3cc4c(cc3OC)N(C=O)[C@H]3[C@@](O)(C(=O)OC)[C@@H](OC(C)=O)[C@]5(CC)C=CCN6CC[C@]43[C@@H]65)c3[nH]c4ccccc4c3CC[N@+]([O-])(C2)C1 [Vincristine N-oxide, Vincristine N′b-Oxide]
- Tumor Growth Inhibition [4]: 69% and 84% and 60%
- bioreduction to parent compound [6]: bioreduced to vincristine under hypoxia exposure
- Hypoxia Cytotoxicity Ratio (HCR) [12]: 11.2
- Tumor Growth Delay ([13]; mouse, in vivo): 76% and 54%
- Tumor Growth Inhibition [7]: 94% and 96%
- Tumor Growth Delay [3]: 42%
- HCR values [9]: 5-25
- Hypoxia Cytotoxicity Ratio (HCR) [10]: 6
- body weight loss / gross symptoms of toxicity (mouse, in vivo): no evidence of significant body weight loss or gross symptoms of toxicity

Compound: CC[C@]1(O)C[C@H]2CN(CCc3c([nH]c4ccccc34)[C@@](C(=O)OC)(c3cc4c(cc3OC)N(C=O)[C@H]3[C@@](O)(C(=O)OC)[C@H](OC(C)=O)[C@]5(CC)C=CCN6CC[C@]43[C@@H]65)C2)C1 [Vincristine, vincristine]
- MTD (in vivo [14]): 1.5 mg/kg
- MTD (in vivo [15]): 1 mg/kg
- Median Survival ([13]; P388, 1 mg/kg i.v. q3d×5): 20.8 days
- Tumor Growth Delay ([13]; P388, 1 mg/kg i.v. q3d×5): 54%
- MTD (in vivo [16]): 1 mg/kg
- Median Survival [17]: 19.6 days
- Tumor Growth Delay [17]: 8%
- MTD (in vivo [18]): 1.5 mg/kg
- Hypoxia Cytotoxicity Ratio (HCR) [19]: 1.1
- IC50 ([20]; read-out: IC50 Air): 17 nM
- IC50 ([20]; read-out: IC50 Hypoxia): 15 nM
- body weight loss (0.6-1 mg/kg iv q3d×5, during the course of treatment): significant body weight loss
